{"source": "patent US7598399B2", "about": "“Methods for synthesis of 3-amino-1-arylpropyl indoles” (Roche Palo Alto LLC, priority 2005, dated 2009)"}
{"molecule": "CNCC[C@@H](c1ccccc1)c1c[nH]c2cccc(OC)c12", "note": "[[(S)-3-(4-Methoxy-1H-indol-3-yl)-3-phenyl-propyl]-methyl-amine]", "values": [{"measurement": "melting point", "value": "134 to 137", "unit": "°C"}]}
